We go through 6 compounds from ChEMBL document CHEMBL1155510, “Scaffold rearrangement of dihydroxypyrimidine inhibitors of HIV integrase: Docking model revisited” (Bioorg Med Chem Lett, 2010).

pIC50: −log10 of the molar value.

Test [1] in a line: Inhibition of HIV integrase 3'-end processing reaction. Details: species or system Human immunodeficiency virus.
Test [2] is described as follows: Inhibition of HIV integrase strand transfer activity. Details: species or system Human immunodeficiency virus.

Turning to `CNC(=O)c1nc(Cc2ccc(F)cc2)[nH]c(=O)c1O`, the pIC50 (usually −log10 of the IC50, conventionally taken in molar units) in test [1] was below 3.48; in test [2], 3.77.
As to `CNC(=O)c1nc(C)n(Cc2ccc(F)cc2)c(=O)c1O`, the results for the pIC50 in test [1] and in test [2] were below 3.48 and 3.95, respectively.
For `CN(C)CCCNC(=O)c1nc(Cc2ccc(F)cc2)[nH]c(=O)c1O`, the pIC50 in test [1] and in test [2] was below 3.48 each time.
On to `O=C(O)c1nc(Cc2ccc(F)cc2)[nH]c(=O)c1O`, for which the pIC50 in test [1] was below 3.48; in test [2], 3.61.
The like results for `CNC(=O)c1nc(Cc2ccc(F)cc2)n(C)c(=O)c1O` were, in that order, below 3.48 and 3.62.
For `COCCNC(=O)c1nc(Cc2ccc(F)cc2)[nH]c(=O)c1O`, the pIC50 was below 3.48 in test [1] and 3.69 in test [2].
